We go through 14 molecules from patent US11299493B2, “Heterocyclic compounds and uses thereof” (NUVATION BIO INC., priority 2017, dated 2022).

Each structure is given as a SMILES string. Bounds are passed on as bounds.

The target of experiment [1] is WEE1 kinase enzyme (Homo sapiens (Human), UniProt P30291). The experiment can be described thus: WEE1 IC50 determination, LanthaScreen Terbium Labeled TR-FRET kinase assay. The format is biochemical. Particulars: WEE1 enzyme 1 nM, ATP 10 μM, 1 h. The protocol: IC50 values of compounds against WEE1 kinase enzyme were determined by LanthaScreen™ Terbium Labeled TR-FRET assay. […] After 1 h, […] stop solution containing Terbium labeled antibody (4 nM) (#PV3529, Invitrogen, Life Technologies Grand Island, N.Y.) and EDTA (#E5134, Sigma, St-Louis, Mo.) (20 mM) in TR-FRET dilution buffer (#PV3574, Invitrogen, Life Technologies Grand Island, N.Y.) was added. Readings were taken in a Synergy Neo Plate reader (BioTek, Winooski) at single excitation of 340 nm and Dual emission at 495 nm and 520 nm respectively.
The % activity of test samples was calculated as (Sample−Min)*100/(Max−Min). [Max: DMSO control, complete reaction with enzyme & DMSO and Min: No enzyme & DMSO].

Experiment [2] concerns A427 cells. As to the kind of experiment: Cytotoxicity assay (resazurin) in A427 cells. Format: cell-based. Conditions: Homo sapiens, A-427, 72 h, A427, 72 hr, read-out: Cell Viability IC50 A427. Here is the method: (§1) Cells were allowed to grow at 37° C. for 24 hr in 5% CO2 environment (culture conditions) in a Nuaire incubator (humidified). Serially diluted test compounds (100 μL) within the desired testing concentration ranges were added to the culture plate were further incubated in culture conditions for 72 hr and 96 hr for A427 and A549 respectively. The experiment was terminated at the designated incubation time by replacing the medium with 100 μL of 1 mM of resazurin (R7017; Sigma) prepared in respective culture medium, and the plates were further incubated in culture conditions for 4-6 hr. Fluorescence was recorded using a multimodal plate reader (Biotek Synergy Neo) at an excitation wavelength of 535 nm and emission wavelength of 590 nm to obtain relative fluorescence units. Data analysis was done by subtracting the background fluorescence (only medium blank) value from each reading and then normalizing with the vehicle control (DMSO treated cells) to obtain percent survival/proliferation. Percent survival was then subtracted by 100 to get the percent inhibition of proliferation which was used to calculate IC50 values.

For experiment [3], the system named is A549 cells. The experiment can be described thus: Cytotoxicity assay (resazurin) in A549 cells. Format: cell-based. Particulars: Homo sapiens, A549, 96 hr, read-out: Cell Viability IC50 A549. The protocol: as §1
For experiment [4], the system named is A427 cells. The experiment can be described thus: Cell proliferation assay (Cell Titer-Glo) in A427 cells. Format: cell-based. Conditions: Homo sapiens, A-427, typically 72 h. Here is the method:
The effects of test compounds were studied in five cell lines with various histotypes. The cancer cells (Table 4) were harvested during the logarithmic growth period and counted. Adjust cell concentrations to the appropriated number with respective medium, and add 90 μL cell suspensions to 96-well plates. After cells were seeded, the plates were shaken gently to distribute cells evenly and incubated at 37° C., 5% CO2 on day 1.
Cell viability data were plotted using GraphPad Prism (version 5, GraphPad Software, Inc., San Diego, Calif.). In addition, a nonlinear regression model with a sigmoidal dose response and variable slope within GraphPad Prism was used to calculate the IC50 value of individual test compounds.

The test system of experiment [5] is A427 cells. As to the kind of experiment: Activity of compounds in combination with cisplatin in A427 cells (resazurin). Format: cell-based. Conditions: Homo sapiens, A-427, 24 hr 2.5 μM cisplatin. The protocol: The activity of test compounds in combination with cisplatin in A427 cells was determined. Cells were seeded in a 96 well plate at 2000 cells/well. The next day, cells were treated with 2.5 μM cisplatin or vehicle (1×PBS) and incubated in culture conditions (37° C., 5% CO2) for 24 hr. Following the incubation, culture medium was replaced with medium containing test compound and cisplatin/vehicle, and cells were further incubated in culture conditions for another 72 hr. By this procedure, cisplatin was either continued or discontinued after an initial 24-hr incubation. Addition of test compound was in concentrations needed to obtain an 8-point dose response curve, with concentrations prepared by 3-fold dilution. The assay was terminated upon addition of resazurin, incubation for 4 hr in culture conditions and measurement of fluorescence at excitation and emission wavelengths of 535 and 590 nm, respectively.

The subject of experiment [6] is Panc 10.05 cells. As to the kind of experiment: Cytotoxicity assay (resazurin) in Panc 10.05 cells. The format is cell-based. Conditions: Homo sapiens, Panc1005; Panc 10.05, resazurin; read-out: Cell Viability IC50 Panc 10.05. The protocol: [The source words this procedure for another cell line and reports this cell line under the same test.] as §1, with “A549 (CCL-185; ATCC) and A427 (HTB-53; ATCC), both lung epithelial cell lines were seeded in their respective medium (DMEM/MEM, 10569044/41090101; Gibco) at a cell count of 1500 cells per 100 μL per well in a 96 well edge plate (167425; ThermoFisher). Cells” for “Cells”, “values. Potency of compounds in other cell lines (As-Pc-1, Panc 10.05, A172) was determined in an analogous manner.” for “values.”

The subject of experiment [7] is As-Pc-1 cells. As to the kind of experiment: Cytotoxicity assay (resazurin) in As-Pc-1 cells. The format is cell-based. Particulars: Homo sapiens, ASPC1; As-Pc-1, resazurin; read-out: Cell Viability IC50 As-Pc-1. Here is the method: [The source words this procedure for another cell line and reports this cell line under the same test.] as §1, with “A549 (CCL-185; ATCC) and A427 (HTB-53; ATCC), both lung epithelial cell lines were seeded in their respective medium (DMEM/MEM, 10569044/41090101; Gibco) at a cell count of 1500 cells per 100 μL per well in a 96 well edge plate (167425; ThermoFisher). Cells” for “Cells”, “values. Potency of compounds in other cell lines (As-Pc-1, Panc 10.05, A172) was determined in an analogous manner.” for “values.”

Experiment [8] relates to A172 cells. The experiment can be described thus: Cytotoxicity assay (resazurin) in A172 cells. Format: cell-based. Particulars: Homo sapiens, A 172, read-out: Cell Viability IC50 A172. Here is the method:
[The source words this procedure for another cell line and reports this cell line under the same test.] as §1, with “A549 (CCL-185; ATCC) and A427 (HTB-53; ATCC), both lung epithelial cell lines were seeded in their respective medium (DMEM/MEM, 10569044/41090101; Gibco) at a cell count of 1500 cells per 100 μL per well in a 96 well edge plate (167425; ThermoFisher). Cells” for “Cells”, “values. Potency of compounds in other cell lines (As-Pc-1, Panc 10.05, A172) was determined in an analogous manner.” for “values.”

[9] abbreviates: then compound + cisplatin 72 hr, read-out: Cell viability IC50 in A427 cells with 2.5 μM cisplatin: 24 hr cisplatin then compound + cisplatin.
Setting [10] is: then compound alone 72 hr, read-out: Cell viability IC50 in A427 cells with 2.5 μM cisplatin: 24 hr cisplatin then compound.

Sequence of WEE1 kinase enzyme (P30291 whole entry): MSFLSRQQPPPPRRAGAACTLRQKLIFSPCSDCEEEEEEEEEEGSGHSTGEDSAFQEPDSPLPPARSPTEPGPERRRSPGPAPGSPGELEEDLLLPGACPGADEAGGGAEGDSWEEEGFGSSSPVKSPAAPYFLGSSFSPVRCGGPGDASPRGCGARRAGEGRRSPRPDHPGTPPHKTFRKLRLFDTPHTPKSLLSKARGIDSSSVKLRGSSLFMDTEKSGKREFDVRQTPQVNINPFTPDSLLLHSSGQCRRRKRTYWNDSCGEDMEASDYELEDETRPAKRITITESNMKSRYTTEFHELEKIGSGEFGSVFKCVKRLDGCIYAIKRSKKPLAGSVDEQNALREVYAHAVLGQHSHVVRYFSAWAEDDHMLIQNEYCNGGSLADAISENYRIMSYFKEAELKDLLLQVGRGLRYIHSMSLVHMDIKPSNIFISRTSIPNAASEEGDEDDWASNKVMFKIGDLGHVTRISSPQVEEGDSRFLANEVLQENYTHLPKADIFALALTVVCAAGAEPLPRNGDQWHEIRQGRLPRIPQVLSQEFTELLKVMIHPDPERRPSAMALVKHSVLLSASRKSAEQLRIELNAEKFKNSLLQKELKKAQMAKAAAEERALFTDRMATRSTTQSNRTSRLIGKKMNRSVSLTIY

Take `C=CCn1c(=O)c2cnc(Nc3ccc4c(c3)CN(C(=O)CO)CC4)nc2n1-c1cccc(C(C)(C)O)n1` [Example 1.2]: the IC50 in experiment [1] amounted to 4 nM; in experiment [2], 330 nM; in experiment [3], 842 nM; in experiment [4], 269 nM.
The like results for `C=CCn1c(=O)c2cnc(Nc3ccc4c(c3)CN(C(=O)C(C)(C)O)CC4(C)C)nc2n1-c1cccc(C(C)(C)O)n1` [Example 1.3] were, in that order, less than 2 nM, 620 nM, 1220 nM and 483 nM.
With `C=CCn1c(=O)c2cnc(Nc3ccc4c(c3)CN(C(=O)CO)CC4(C)C)nc2n1-c1cccc(C(C)(C)O)n1` [Example 1.6], the IC50 in experiment [1] was 3.1 nM; in experiment [2] it was 355 nM; in experiment [3], 972 nM; in experiment [4], 277 nM.
`CCn1c(=O)c2cnc(Nc3ccc4c(c3)CCNC4)nc2n1-c1cccc(C(C)(C)O)n1` [Example 1.12]: the IC50 in experiment [1] worked out at 4 nM; in experiment [2], 1720 nM; in experiment [3] it was 1060 nM; in experiment [5] (setting [9]), 70 nM; in experiment [5] (setting [10]), 120 nM.
For `CCCn1c(=O)c2cnc(Nc3ccc4c(c3)CNCC4)nc2n1-c1cccc(C(C)(C)O)n1` [Example 1.15], the results for the IC50 in experiment [1], in experiment [2] and in experiment [3] were 1.5 nM, 560 nM and 1200 nM, respectively.
In the case of `CCn1c(=O)c2cnc(Nc3ccc4c(c3)CN(C)CC4(C)C)nc2n1-c1cccc(C(C)(C)O)n1` [Example 1.16], the IC50 in experiment [1] was 4.5 nM; in experiment [2], 1420 nM; in experiment [3], 1550 nM; in experiment [5] (setting [9]), less than 14 nM; in experiment [5] (setting [10]) it was 100 nM.
With `CC(C)(O)c1cccc(-n2c3nc(Nc4ccc5c(c4)CNCC5)ncc3c(=O)n2C2CC2)n1` [Example 1.17], the IC50 in experiment [1] was determined as 9.5 nM; in experiment [2], 2320 nM; in experiment [3] it was 9060 nM.
Take `CC(C)n1c(=O)c2cnc(Nc3ccc4c(c3)CCNC4)nc2n1-c1cccc(C(C)(C)F)n1` [Example 1.140]: the figures for the IC50 in experiment [1], in experiment [2] and in experiment [6] were 5 nM, 555 nM and 1520 nM, respectively.
With `CC(C)(C)c1cccc(-n2c3nc(Nc4ccc5c(c4)CCNC5)ncc3c(=O)n2C2CC2)n1` [Example 1.143], the IC50 turned out to be 3 nM in experiment [1]; 470 nM in experiment [2]; 2850 nM in experiment [3]; 270 nM in experiment [7]; 1850 nM in experiment [6]; 3620 nM in experiment [8].
Regarding `CC(C)(F)c1cccc(-n2c3nc(Nc4ccc5c(c4)CCNC5)ncc3c(=O)n2C2CC2)n1` [Example 1.146], the half-maximal inhibitory concentration (IC50) stood at 9 nM in experiment [1]; 965 nM in experiment [2]; 6680 nM in experiment [3]; 920 nM in experiment [7]; 5700 nM in experiment [6]; 6820 nM in experiment [8].
Take `CC(C)(C)c1cc(-n2c3nc(Nc4ccc5c(c4)CCNC5(C)C)ncc3c(=O)n2C2CC2)ccn1` [Example 2.182]: the IC50 in experiment [1] stood at 62 nM; in experiment [2] it was 720 nM; in experiment [3], 7750 nM; in experiment [7] it was 1740 nM; in experiment [6], 8600 nM; in experiment [8] it was 10600 nM.
Consider `CC(C)n1c(=O)c2cnc(Nc3ccc4c(c3)CCNC4)nc2n1-c1ccnc(C(C)(C)C)n1` [Example 2.183], for which the IC50 in experiment [1] is 4 nM; in experiment [2], 135 nM; in experiment [3], 1800 nM; in experiment [7], 95 nM; in experiment [6], 805 nM; in experiment [8], 1640 nM.
In the case of `CC(C)n1c(=O)c2cnc(Nc3ccc4c(c3)CNCC4)nc2n1-c1ccnc(C(C)(C)C)n1` [Example 2.184], the IC50 in experiment [1] came to 2 nM; in experiment [2], 90 nM; in experiment [3], 655 nM; in experiment [7], 85 nM; in experiment [6], 545 nM; in experiment [8], 985 nM.
In the case of `CC(C)n1c(=O)c2cnc(Nc3ccc4c(c3)CCNC4)nc2n1-c1ccn(C2CC2)n1` [Example 2.188], the IC50 in experiment [1] amounted to 53 nM; in experiment [2], 815 nM; in experiment [3] it was 910 nM; in experiment [7], 965 nM; in experiment [6] it was 3100 nM; in experiment [8], 1520 nM.
